# ± gives the expanded uncertainty stated by the source.
# Conditions: Liquid, Transpiration method
compound,measurement,setting,value
CCCCCCCCCCc1ccccc1 [1-phenyldecane],vapor or sublimation pressure,318.2 K,0.00122 ± 9e-05 kPa
same,vapor or sublimation pressure,323.2 K,0.00192 ± 0.00014 kPa
same,vapor or sublimation pressure,328.3 K,0.00293 ± 0.00021 kPa
same,vapor or sublimation pressure,333.5 K,0.0045 ± 0.00032 kPa
same,vapor or sublimation pressure,338.6 K,0.00655 ± 0.00047 kPa
same,vapor or sublimation pressure,343.7 K,0.00966 ± 0.00069 kPa
same,vapor or sublimation pressure,348.7 K,0.0144 ± 0.001 kPa
same,vapor or sublimation pressure,353.3 K,0.0203 ± 0.0014 kPa
same,vapor or sublimation pressure,358.4 K,0.0288 ± 0.002 kPa
same,vapor or sublimation pressure,363.4 K,0.0406 ± 0.0029 kPa
CCCCCCCc1ccccc1 [heptylbenzene],vapor or sublimation pressure,292.5 K,0.00286 ± 0.00021 kPa
same,vapor or sublimation pressure,294.5 K,0.00347 ± 0.00025 kPa
same,vapor or sublimation pressure,297.5 K,0.00455 ± 0.00033 kPa
same,vapor or sublimation pressure,300.4 K,0.00585 ± 0.00042 kPa
same,vapor or sublimation pressure,303.4 K,0.00761 ± 0.00054 kPa
same,vapor or sublimation pressure,306.4 K,0.00955 ± 0.00068 kPa
same,vapor or sublimation pressure,309.4 K,0.01227 ± 0.00087 kPa
same,vapor or sublimation pressure,312.4 K,0.01486 ± 0.0011 kPa
same,vapor or sublimation pressure,315.4 K,0.01959 ± 0.0014 kPa
same,vapor or sublimation pressure,318.2 K,0.02441 ± 0.0017 kPa
same,vapor or sublimation pressure,321.3 K,0.03085 ± 0.0022 kPa
same,vapor or sublimation pressure,323.4 K,0.03499 ± 0.0025 kPa
same,vapor or sublimation pressure,326.4 K,0.04342 ± 0.0031 kPa
same,vapor or sublimation pressure,328.4 K,0.04901 ± 0.0035 kPa
same,vapor or sublimation pressure,331.3 K,0.06114 ± 0.0043 kPa
same,vapor or sublimation pressure,333.5 K,0.06975 ± 0.0049 kPa
same,vapor or sublimation pressure,336.4 K,0.0845 ± 0.006 kPa
same,vapor or sublimation pressure,338.5 K,0.09752 ± 0.0069 kPa
same,vapor or sublimation pressure,341.3 K,0.1139 ± 0.0081 kPa
same,vapor or sublimation pressure,343.5 K,0.1322 ± 0.0094 kPa
same,vapor or sublimation pressure,346.3 K,0.1552 ± 0.011 kPa
same,vapor or sublimation pressure,348.5 K,0.1818 ± 0.013 kPa
same,vapor or sublimation pressure,351.5 K,0.2197 ± 0.015 kPa
same,vapor or sublimation pressure,353.5 K,0.2474 ± 0.018 kPa
CCCCCc1ccccc1 [pentylbenzene],vapor or sublimation pressure,284.5 K,0.0162 ± 0.0012 kPa
same,vapor or sublimation pressure,287.5 K,0.0218 ± 0.0016 kPa
same,vapor or sublimation pressure,290.4 K,0.0272 ± 0.0019 kPa
same,vapor or sublimation pressure,293.3 K,0.0333 ± 0.0024 kPa
same,vapor or sublimation pressure,293.4 K,0.0328 ± 0.0023 kPa
same,vapor or sublimation pressure,296.3 K,0.0427 ± 0.003 kPa
same,vapor or sublimation pressure,298.3 K,0.0493 ± 0.0035 kPa
same,vapor or sublimation pressure,303.2 K,0.0706 ± 0.005 kPa
same,vapor or sublimation pressure,306.3 K,0.0902 ± 0.0064 kPa
same,vapor or sublimation pressure,308.2 K,0.0998 ± 0.0071 kPa
same,vapor or sublimation pressure,311.2 K,0.1227 ± 0.0087 kPa
same,vapor or sublimation pressure,314.2 K,0.1487 ± 0.011 kPa
same,vapor or sublimation pressure,317.3 K,0.1765 ± 0.013 kPa
same,vapor or sublimation pressure,320.3 K,0.2193 ± 0.016 kPa
same,vapor or sublimation pressure,323.2 K,0.2711 ± 0.019 kPa
CCCCCCCCCCCc1ccccc1 [undecylbenzene],vapor or sublimation pressure,313.2 K,0.00027 ± 2e-05 kPa
same,vapor or sublimation pressure,319.3 K,0.0005 ± 4e-05 kPa
same,vapor or sublimation pressure,323.3 K,0.00072 ± 5e-05 kPa
same,vapor or sublimation pressure,327.3 K,0.00104 ± 7e-05 kPa
same,vapor or sublimation pressure,331.3 K,0.00146 ± 0.0001 kPa
same,vapor or sublimation pressure,333.4 K,0.00176 ± 0.00013 kPa
same,vapor or sublimation pressure,338.4 K,0.00262 ± 0.00019 kPa
same,vapor or sublimation pressure,343.5 K,0.00413 ± 0.0003 kPa
same,vapor or sublimation pressure,348.7 K,0.00598 ± 0.00043 kPa
same,vapor or sublimation pressure,353.6 K,0.00906 ± 0.00065 kPa
same,vapor or sublimation pressure,358.7 K,0.01272 ± 0.0009 kPa
same,vapor or sublimation pressure,363.8 K,0.01807 ± 0.0013 kPa

# Reference: the NIST ThermoML archive (doi:10.1016/j.jct.2005.11.009)
